Laboratory results taken from patent US20210087565A1, “ANTISENSE ANTIBIOTICS AND BACTERIAL SECRETION BASED DELIVERY SYSTEM TO ELIMINATE DRUG-RESISTANT BACTERIA” (priority 2018, published 2021).
Values joined by “and” are separate entries in the source; they are usually repeats but may differ in a detail not shown here. Equal entries are not always repeated.

Columns and labels:
[1] = tested on: CRE E. coli; test: PNA growth assay (optical density) on clinical isolate; assay type: cell-based, Escherichia coli; conditions: for growth inhibition: 10 μM PNA, optical density vs no treatment at 16 hours
Description: (§1) Bacterial Cell culture: The clinical isolates were obtained from the lab of Nancy Madinger at the University of Colorado Anschutz campus. Clinical isolates were grown in Cation Adjusted Mueller Hinton broth (CAMHB) (Becton, Dickinson and Company 212322) at 37° C. with 225 rpm shaking or on solid CAMHB with 1.5% agar at 37° C. Clinical isolates were maintained as freezer stocks in 90% CAMHB, 10% glycerol at −80° C. Freezer stocks were streaked out onto solid CAMHB and incubated for 16 h to produce single colonies prior to experiments. For each biological replicate, a single colony was picked from solid media and grown for 16 h in liquid CAMHB prior to experiments. Non-clinical isolates, such as E. coli MG1655 (ATCC700926) and Salmonella entorica serovar typhimurium SL1344, were cultured in liquid 2% lysogeny broth (LB) or on 2% LB with 1.5% agar for solid plates. S. typhimurium cultures were supplemented with 30 μg/mL streptomycin and SL1344 strains containing plasmids pFPV (SL1344-mCherry) or pRG1 modified with a lacIq promoter (SL1344-Holin) were supplemented with 100 μg/mL ampicillin. Freezer stocks were stored in 60% LB broth, 40% glycerol at −80° C. Freezer stocks were streaked out onto solid LB and incubated for 16 h to produce single colonies before experiments. For biological replicates, single colonies were started in liquid LB and grown for 16 hours prior to experiments. E. coli MG1655 PNA growth experiments were carried out in M9 media (1×M9 minimal media salts solution (MP Biomedicals), 2.0 mM MgSO4, and 0.1 mM CaCl2 in sterile water) with 0.4% glucose.
(§2) PNA growth assay: Biological replicates were diluted 1:10,000 into treatment condition in 384-well plates and measured for 24 h in a Tecan GENios at 562 nm with a bandwidth of 35 nm. Media absorbance blanks were subtracted from data prior to analysis. Normalized optical density (OD) data is shown normalized to the time point where the “no treatment” growth curves reached saturation phase which varied across biological replicates.

[2] = tested on: MDR STm; test: as above; assay type: cell-based, Salmonella enterica serovar typhimurium; conditions: for growth inhibition: MDR STm, 10 μM PNA, optical density vs no treatment at 16 hours; for monotherapy effect (in words): clinical isolate of Salmonella
Description: as §1, §2

[3] = tested on: SL1344; test: Effect of 45-minute incubation with PNA on SL1344 viability; assay type: cell-based, Salmonella enterica serovar typhimurium; conditions: 10 μM, 45 minutes
Description: FIG. 13. Effect of 45-minute incubation with PNA treatment during infection. (A) Individual colonies of SL1344 were picked off of solid media and grown for 16 hours in luria broth supplemented with 30 μg/mL streptomycin, diluted 1:10, and regrown for 4 hours. After regrowth bacteria was diluted to a concentration equivalent to a […] multiplicity of infection of 200,000 cells/mL in 100 μL (conditions of HeLa cell infection after 24 hours growth). Cultures were suspended in phosphate buffered saline and treated with 10 μM of either α-lexA, α-rpsD, or plain phosphate buffered saline for 45 minutes before serial dilution, plated on solid media (40 μg/mL streptomycin), and incubated for 16 hours. Colony forming units were counted to enumerate percent infection with respect to no treatment. There is no significant difference (p>0.05) between α-lexA and α-rpsD at 45 minutes of treatment. […] Percent infection was then calculated in comparison to each replicates' no treatment. […]
Effect of PNA after 45 min of incubation during HeLa infection: SL1344 were cultured as described above and split 1:10 and regrown for 4 hours. […] Samples (10 μL) were taken at t=0 (before PNA addition) and t=45 min (after PNA treatment), and serially diluted, plated, and grown for 16 hours at 37° C. and CFU counted.

[4] = tested on: NDM-1 KPN; test: PNA growth assay (optical density) on clinical isolate; assay type: cell-based, Klebsiella pneumoniae
Description: as §1, §2

[5] = tested on: SL1344 infection of MC3T3-E1 osteoblast precursor cells; test: Salmonella infection of osteoblast precursor cells, T3SS-PNA treatment; assay type: cell-based, Salmonella enterica serovar typhimurium; conditions: 10 μM, multiplicity of infection of 30, 18 hours
Description: FIG. 11. […] Osteoblast precursor cells were grown for 24 hours on tissue culture treated 96-well plates prior to infection with SL1344 at a multiplicity of infection of 30. (A) The antisense inhibitor α-rpsD was added at 10 μM either without infection (No Treatment), after infection (Naked), or during infection (T3SS Transport). (B) After treatment for 18 hours the infection was imaged in brightfield and GFP channel. GFP expression corresponds to an intracellular infection with red arrows indicating hard to see GFP expression.
Osteoblast Precursor Cell Culture: MC3T3-E1 osteoblast precursor cells were stored in liquid nitrogen in growth media supplemented with %10 dimethyl sulfoxide (DMSO, Sigma). Osteoblasts were recovered from freezer stocks and cultured in growth media consisting of α-Minimum Essential Media (α-MEM, Gibco) supplemented with 10% Fetal Bovine Serum (FBS, Advanced, Atlanta Biologics), and 50 units/mL Penicillin-Streptomycin (P/S, Fisher Scientific) at 37° C., 5% CO2, and controlled humidity. For biological replicates a freezer stock, at passage 9, was split three ways and each replicate continuously passaged as individual biological replicates at 80% confluency using 0.25% trypsin (HyClone). […]

Substance	growth inhibition [1]	growth inhibition [2]	monotherapy effect (in words) [2]	bacterial viability after co-incubation (in words) [3]	monotherapy effect (in words) ([4]; 10 μM)	growth inhibition ([4]; 10 μM PNA, optical density vs no treatment at 16 hours) [%]	monotherapy effect (in words) ([1]; 10 μM)	Salmonella infection of osteoblast cells (in words) [5]
α-lexA: 12-mer antisense PNA cGGAATGAAAGC (SEQ ID NO. 17) targeting lexA, conjugated to (KFF)3K cell penetrating peptide via AEEA-linker (antisense CGGAATGAAAGC; all peptide nucleic acid (PNA); (KFF)3K cell-penetrating peptide attached via AEEA linker)	51±8.1%	62±5.4%	effective against the clinical isolate of Salmonella	not long enough for the PNA to decrease bacterial viability				
α-rpsD: 12-mer antisense PNA AGAAAATGGCAA (SEQ ID NO. 19) targeting rpsD, conjugated to (KFF)3K cell penetrating peptide via AEEA-linker (all peptide nucleic acid (PNA); (KFF)3K cell-penetrating peptide attached via AEEA linker)	99±0.4% and 99%	99±0.1% and 99%	effective against the clinical isolate of Salmonella	not long enough for the PNA to decrease bacterial viability	partial monotherapy effect	65±7.1	effective in killing	eliminates Salmonella infection
